Measured values published in US20090280062A1, “LONGEVITY-PROMOTING EFFECTS OF ACETIC ACID AND REISHI POLYSACCHARIDE” (priority 2008, published 2009).

Legend:
[1] = test system: wild-type C. elegans (N2); experiment: Lifespan analysis of C. elegans after treatment with test substances; format: in vivo; conditions: acetic acid and vitamins 50 ppm, RF3 and mushroom polysaccharide fractions 100 ppm (FIG. 1); 20° C.; versus water control
Excerpt: Strains, bacteria, natural products and chemicals. The wild-type N2 strain of C. elegans were used in all experiments. The worms were maintained and cultured on nematode growth medium (NGM) agar plates or in liquid medium with E. coli OP50 as a food source. […] Contaminating food and worm debris were removed by sucrose floatation. In addition to OP50, two E. coli strains for RNAi were used (III-1N20 for TIR-1 RNAi and I-5M24 for DAF-16 RNAi). RF3, crude mycelium-powders of A. camphorate and H. erinaceus were prepared as described in previous papers. Each solution was diluted with deionized water to make test solutions of desired concentrations for various assays. Lifespan analysis after treatment with various substances.

[2] = test system: DAF-16; experiment: Semi-quantitative RT-PCR of DAF-16 transcripts in C. elegans; format: in vivo; conditions: day 2 after treatment; acetic acid 50 ppm, extracts 100 ppm; normalised to ACT-1
Procedure: (§1) RNA preparation and reverse transcriptase-PCR(RT-PCR). Total RNA from batches of C. elegans were isolated from samples in the NGM medium at appropriate time intervals using an RNeasy mini kit (Qiagen). Subsequently, RNA (500 ng) from each sample was reverse-transcribed and PCR was performed using a Superscript One-step RT-PCR kit (Invitrogen). […] PCR products were run on 1.8% agarose gel and stained with 0.4 μg/ml ethidium bromide. Stained bands were visualized under UV light and photographed with a camera (Nikon […]).

[3] = test system: RAB-1 and PMK-1 (MAPK pathway); experiment: RT-PCR of RAB-1 and PMK-1 transcripts (MAPK pathway) in C. elegans; conditions: in vivo transcription after treatment; RF3 100 ppm, 2 days
Procedure: as §1

CC(=O)O [Acetic acid, acetic acid]
lifespan-extending effect on C. elegans [1]: showed lifespan-extending effect | DAF-16 expression [2]: significant increase | MAPK pathway activation (RAB-1 and PMK-1 transcription levels) [3]: apparently not involved
